Entries after “also recorded” stand apart in the source; their conditions may differ. Read-outs that look alike come from different tables or passages of the source.
Legend:
KG1a cells = test: In vitro cytotoxicity, Annexin V/propidium iodide assay in KG1a cells; assay type: cell-based; settings: for change of potency (mean LD50) under hypoxic versus normoxic conditions: 5% oxygen
Experimental: The acute myeloid leukaemia (AML) KG1a cell line was maintained in RPMI medium (Invitrogen, Paisley, UK) supplemented with 100 units/mL penicillin, 100 μg/mL streptomycin and 20% foetal calf serum. Cells were subsequently aliquoted (10^5 cells/100 μL) into 96-well plates and were incubated at 37° C. in a humidified normoxic (20% oxygen) or hypoxic (1% or 5% oxygen) atmosphere for 48 h in the presence of clofarabine, or clofarabine diphosphate phosphoramidates of the invention (1×10^−10M-1×10^−6M). In addition, control cultures were carried out to which no drug was added. Cells were subsequently harvested by centrifugation and were analysed by flow cytometry using the Annexin V assay.
Cultured cells were harvested by centrifugation and then resuspended in 195 μL of calcium-rich buffer. Subsequently, 5 μL of Annexin V (Caltag Medsystems, Botolph Claydon, UK) was added to the cell suspension and cells were incubated in the dark for 10 mins prior to washing. Cells were finally resuspended in 190 μL of calcium-rich buffer together with 10 μL of propidium iodide. Apoptosis was assessed by dual-colour immunofluorescent flow cytometry as described previously. Subsequently LD50 values (the dose required to kill 50% of the cells in a culture) were calculated for each nucleoside analogue and diphosphate phosphoramidate.
The data obtained in these experiments were evaluated using one-way ANOVA. All data was confirmed as Gaussian or a Gaussian approximation using the omnibus K2 test. LD50 values were calculated from the non-linear regression and line of best-fit analysis of the sigmoidal dose-response curves. All statistical analyses were performed using Graphpad Prism 6.0 software (Graphpad Software Inc., San Diego, Calif.).
The in vitro drug sensitivity of KG1a cells was assessed using the Annexin V/propidium iodide assay.

K562 = test: CellTiterGlo cell viability assay, K562; assay type: cell-based; settings: for EC50: read-out: Ab EC50
Procedure, shortened: (§1)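 Cell viability was measured by CellTiterGlo luminescence after ~72 h compound exposure under standard growth conditions. Compounds were tested in duplicate at 9 points, 3.16-fold dilutions, final concentrations 198 μM to 19.8 nM, 0.5% DMSO final; absolute EC50 and percentage inhibition at top concentration were reported.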

KG-1 = test: CellTiterGlo cell viability assay, KG-1; assay type: cell-based; settings: Homo sapiens, KG-1, 72 h
Procedure, shortened: as §1

MCF-7 = test: CellTiterGlo cell viability assay, MCF-7; assay type: cell-based; settings: Homo sapiens, MCF7, 72 h, MCF-7, 72 h; for EC50: read-out: Ab EC50
Procedure, shortened: as §1

CCRF-CEM = test: CellTiterGlo cell viability assay, CCRF-CEM; assay type: cell-based; settings: 72 h; for EC50: read-out: Ab EC50
Procedure, shortened: as §1

in vitro = settings: human, pooled cryopreserved hepatocytes, pH 7.3
HepG2 = test: CellTiterGlo cell viability assay, HepG2; assay type: cell-based; settings: Homo sapiens, HepG2, 72 h; for EC50: read-out: Ab EC50
Procedure, shortened: as §1

OVCAR 3 = test: CellTiterGlo cell viability assay, OVCAR 3; assay type: cell-based; settings: for EC50: OVCAR 3, 72 h, read-out: Ab EC50
Procedure, shortened: as §1

HT29 = test: CellTiterGlo cell viability assay, HT29; assay type: cell-based; settings: Homo sapiens, HT-29, 72 h, HT29, 72 h; for EC50: read-out: Ab EC50
Procedure, shortened: as §1

RPMI-8226 = test: CellTiterGlo cell viability assay, RPMI-8226; assay type: cell-based, Human; settings: Homo sapiens, RPMI-8226, 72 h; for EC50: read-out: Ab EC50
Procedure, shortened: as §1

RL = test: CellTiterGlo cell viability assay, RL; assay type: cell-based; settings: Homo sapiens, 72 h; for EC50: read-out: Ab EC50
Procedure, shortened: as §1

[1] = percentage inhibition at the highest concentration tested, read-out: Top Inhibit
[2] = percentage inhibition at the highest concentration tested, read-out: Top Inh

With `Nc1nc(Cl)nc2c1ncn2[C@@H]1O[C@H](CO)[C@@H](O)[C@@H]1F` [Clofarabine, reference compound] the “change of potency (mean LD50) under hypoxic versus normoxic conditions” value (KG1a cells; in words) was “significant loss in potency under hypoxic conditions; also recorded: significant reduction in potency”, the “change of potency (mean LD50) under hypoxic versus normoxic conditions” value (KG1a cells; in words, listed as clofarabine) was “significant increase in mean LD50 under hypoxic conditions; also recorded: significant reduction in potency” and the “Hypoxia Mean LD50” value (KG1a cells; 48 h, hypoxic (5% O2)) was 53.1 nM. For the same compound, the “Mean LD50 (Normoxia Mean LD50)” value (KG1a cells; 48 h, normoxic (20% oxygen)) was 16.9 nM, the “mean LD50 under hypoxic conditions” value (KG1a cells; hypoxic (5% oxygen)) was 53.1 nM and the “potency in KG1a cells (dose-response curves)” value (KG1a cells; in words) was “highest potency”. For the same compound, the “mean LD50” value (KG1a cells; normoxic) was 16.9 nM, the “Ratio Normoxia/Hypoxia” value (KG1a cells; ratio of mean LD50 values) was 31.8 and the inhibition at 198 µM (K562; Homo sapiens, K562, 72 h, percentage inhibition at the highest concentration tested, read-out: Top Inh) was 23%. The EC50 (K562; Homo sapiens, K562, 72 h, Table 3 classes) was greater than 10000 nM, the EC50 (K562; K 562, 72 h, Table 4 classes) was greater than 10000 nM and the EC50 (KG-1; Table 4 classes, read-out: Ab EC50) was less than 200 nM. For the same compound, the inhibition at 198 µM (KG-1; [1]) was 93%, the EC50 (MCF-7; Table 3 classes) was 200 to 2000 nM and the EC50 (MCF-7; Table 4 classes) was 200 to 1000 nM. For the same compound, the inhibition at 198 µM (MCF-7; [1]) was 55%, the EC50 (CCRF-CEM; Table 4 classes) was less than 200 nM and the EC50 (CCRF-CEM; Homo sapiens, Table 3 classes) was less than 200 nM. For the same compound, the inhibition at 198 µM (CCRF-CEM; Homo sapiens, percentage inhibition at the highest concentration tested, read-out: Top Inh) was 98.7%, the half-life at 1 μM (in vitro) was greater than 2 h and the EC50 (HepG2; Table 3 classes) was 2000 to 5000 nM. For the same compound, the EC50 (HepG2; Table 4 classes) was 1000 to 5000 nM, the inhibition at 198 µM (HepG2; [1]) was 64% and the inhibition at 198 µM (OVCAR 3; Homo sapiens, OVCAR-3, 72 h, percentage inhibition at the highest concentration tested, read-out: Top Inhibit) was 48%. For the same compound, the EC50 (OVCAR 3; Homo sapiens, Table 3 classes) was greater than 10000 nM, the EC50 (OVCAR 3; Table 4 classes) was greater than 10000 nM and the EC50 (HT29; Table 3 classes) was 200 to 2000 nM. It also gave an EC50 (HT29; Table 4 classes) of 200 to 1000 nM, an inhibition at 198 µM (HT29; [1]) of 64% and an EC50 (RPMI-8226; Table 3 classes) of 5000 to 10000 nM. For the same compound, the EC50 (RPMI-8226; Table 4 classes) was greater than 10000 nM, the inhibition at 198 µM (RPMI-8226; [2]) was 89% and the EC50 (RL; Table 3 classes) was 200 to 2000 nM. It also gave an EC50 (RL; Table 4 classes) of 200 to 1000 nM and an inhibition at 198 µM (RL; [2]) of 77%.

Source: US11560400B2, “Salts of diphosphate phosphoramidate of nucleosides as anticancer compounds” (NuCana plc, priority 2017, dated 2023)
